US10125142B2, “Method for purifying mitomycin C” (Kyowa Hakko Kirin Co., Ltd., priority 2015, dated 2018)

Experiment: Change in the number of particles in mitomycin C in a stability test under severe conditions (MFI DPA5200 particle quantification)
Assay type: physicochemical
Conditions: for number of particles ≥10 μm in 10 mg of mitomycin C / number of particles ≥25 μm in 10 mg of mitomycin C: average of triplicates; for change in number of particles having a diameter of 10 μm or more / change in number of particles having a diameter of 25 μm or more: after 300-hour exposure to severe conditions (50° C.), result in words
Description: Change in the Number of Particles in Mitomycin C in a Stability Test under Severe Conditions
300 mg of each mitomycin C prepared in Example 1 and Comparative Examples 1 and 2 is separately placed into a vial, and stored at 50° C. under uncontrolled humidity. Sampling was performed after 0, 191 and 300 hours from the onset of the storage, and whether the number of particles would increase was examined according to the following section “Quantification of Particles in Mitomycin C”.
Quantification of Particles in Mitomycin C
10 mg of mitomycin C was weighed out accurately, water for injection was added to make up the volume to 25 mL exactly, and the resulting solution was used as a sample solution.
The particles in mitomycin C were analyzed with MFI DPA5200 (Protein Simple). Prior to the analysis of the sample solution, the passage in the analytical device was washed with water for injection to obtain the particle-free baseline. 1 mL of the sample solution was drawn into a pipette tip and then loaded on the sample holder. The sample solution was allowed to pass into the passage at a flow rate 0.1 mL/min to completely replace the liquid in the passage, and then the analysis of the sample; solution was started (volume for analysis: 0.61 mL).
The obtained data was filtered on MVAS 1.3 software to extract particles having an aspect ratio of less than 0.85 for the purpose of excluding bubbles. The number of particles having a diameter of 10 μm or more in 10 mg of mitomycin C and the number of particles having a diameter of 25 μm or more in 10 mg of mitomycin C were separately counted using Microsoft Excel.
The above procedure was repeated 3 times, and the average value of the triplicates was used as the quantitative value.

[1] = 191 hours storage at 50° C. under uncontrolled humidity
[2] = 300 hours storage at 50° C. under uncontrolled humidity
[3] = Initial (0 hours), storage at 50° C. under uncontrolled humidity

SMILES	number of particles ≥10 μm in 10 mg of mitomycin C [1]	number of particles ≥25 μm in 10 mg of mitomycin C [1]	number of particles ≥10 μm in 10 mg of mitomycin C [2]	number of particles ≥25 μm in 10 mg of mitomycin C [2]	number of particles ≥10 μm in 10 mg of mitomycin C [3]	number of particles ≥25 μm in 10 mg of mitomycin C [3]	change in number of particles having a diameter of 10 μm or more	change in number of particles having a diameter of 25 μm or more
CO[C@@]12[C@H](COC(N)=O)C3=C(C(=O)C(C)=C(N)C3=O)N1C[C@@H]1N[C@@H]12 [Comparative Example 1, Mitomycin C]	7063	861	22527	3005	2118	246	significant increase	significant increase
CO[C@@]12[C@H](COC(N)=O)C3=C(C(=O)C(C)=C(N)C3=O)N1C[C@@H]1N[C@@H]12 [Comparative Example 2, Mitomycin C]	279617	51953	301967	36216	3853	178	significant increase	significant increase
CO[C@@]12[C@H](COC(N)=O)C3=C(C(=O)C(C)=C(N)C3=O)N1C[C@@H]1N[C@@H]12 [Example 1, mitomycin C]	3624	273	5683	314	3047	151	almost no increase	almost no increase
